Laboratory results: the supplement of paper PMC8882468

What follows are molecules tested on HCI-019 (organoid from a triple-negative breast cancer xenograft) (assay: CTG-3D luminescence at 96 h relative to day-0 seeding control (ratio to day 0); higher = more growth / less cytotoxicity; PDxO 3D drug screen, 96 h, CTG-3D normalised to day-0 seeding control.). Conditions: 1 µM; days in culture: 152.

Row | Compound | CTG-3D luminescence at 96 h
1 | NC(=O)Nc1cc(-c2cccc(F)c2)sc1C(=O)N[C@H]1CCCNC1 [AZD7762] | 0.437
2 | Nc1ccn([C@@H]2O[C@H](CO)[C@@H](O)C2(F)F)c(=O)n1 [gemcitabine] | 0.375
3 | CC1(C)CCC(c2ccc(Cl)cc2)=C(CN2CCN(c3ccc(C(=O)NS(=O)(=O)c4ccc(N[C@H](CCN5CCOCC5)CSc5ccccc5)c(S(=O)(=O)C(F)(F)F)c4)cc3)CC2)C1 [navitoclax] | 0.769
4 | CN(Cc1cnc2nc(N)nc(N)c2n1)c1ccc(C(=O)N[C@@H](CCC(=O)O)C(=O)O)cc1 [methotrexate] | 2.27
5 | C=CCn1c(=O)c2cnc(Nc3ccc(N4CCN(C)CC4)cc3)nc2n1-c1cccc(C(C)(C)O)n1 [adavosertib] | 0.511
6 | CC(C)(C(=O)NCC(F)(F)C(F)(F)F)C(=O)N[C@@H]1C(=O)Nc2ccccc2-c2ccccc21 | 2.19
7 | C[C@@H]1COCCN1c1cc(C2([S@](C)(=N)=O)CC2)nc(-c2cc[nH]c3nccc2-3)n1 [ceralasertib] | 1.1
8 | CCN1CCN(Cc2ccc(Nc3ncc(F)c(-c4cc(F)c5nc(C)n(C(C)C)c5c4)n3)nc2)CC1 [abemaciclib] | 2.13

Same assay, conditions: 10 µM; days in culture: 110

Row | Compound | CTG-3D luminescence at 96 h
9 | COc1cccc2c1C(=O)c1c(O)c3c(c(O)c1C2=O)C[C@@](O)(C(=O)CO)C[C@@H]3O[C@H]1C[C@H](N)[C@H](O)[C@H](C)O1 [doxorubicin] | 0.00454
10 | O=C(O)C1(C(=O)O)CCC1.[NH2-].[NH2-].[Pt+2] [carboplatin] | 1.16
11 | NC(=O)Nc1cc(-c2cccc(F)c2)sc1C(=O)N[C@H]1CCCNC1 [AZD7762] | 0.13
12 | Nc1ccn([C@@H]2O[C@H](CO)[C@@H](O)C2(F)F)c(=O)n1 [gemcitabine] | 0.237
13 | CC1(C)CCC(c2ccc(Cl)cc2)=C(CN2CCN(c3ccc(C(=O)NS(=O)(=O)c4ccc(N[C@H](CCN5CCOCC5)CSc5ccccc5)c(S(=O)(=O)C(F)(F)F)c4)cc3)CC2)C1 [navitoclax] | 0.538
14 | CN(Cc1cnc2nc(N)nc(N)c2n1)c1ccc(C(=O)N[C@@H](CCC(=O)O)C(=O)O)cc1 [methotrexate] | 1.54
15 | C=CCn1c(=O)c2cnc(Nc3ccc(N4CCN(C)CC4)cc3)nc2n1-c1cccc(C(C)(C)O)n1 [adavosertib] | 0.536
16 | CC(C)(C(=O)NCC(F)(F)C(F)(F)F)C(=O)N[C@@H]1C(=O)Nc2ccccc2-c2ccccc21 | 2.09
17 | C[C@@H]1COCCN1c1cc(C2([S@](C)(=N)=O)CC2)nc(-c2cc[nH]c3nccc2-3)n1 [ceralasertib] | 0.526
18 | CCN1CCN(Cc2ccc(Nc3ncc(F)c(-c4cc(F)c5nc(C)n(C(C)C)c5c4)n3)nc2)CC1 [abemaciclib] | 0.433

Same assay, conditions: 10 µM; days in culture: 131

Row | Compound | CTG-3D luminescence at 96 h
19 | COc1cccc2c1C(=O)c1c(O)c3c(c(O)c1C2=O)C[C@@](O)(C(=O)CO)C[C@@H]3O[C@H]1C[C@H](N)[C@H](O)[C@H](C)O1 [doxorubicin] | 0.00725
20 | O=C(O)C1(C(=O)O)CCC1.[NH2-].[NH2-].[Pt+2] [carboplatin] | 1.23
21 | NC(=O)Nc1cc(-c2cccc(F)c2)sc1C(=O)N[C@H]1CCCNC1 [AZD7762] | 0.193
22 | Nc1ccn([C@@H]2O[C@H](CO)[C@@H](O)C2(F)F)c(=O)n1 [gemcitabine] | 0.344
23 | CC1(C)CCC(c2ccc(Cl)cc2)=C(CN2CCN(c3ccc(C(=O)NS(=O)(=O)c4ccc(N[C@H](CCN5CCOCC5)CSc5ccccc5)c(S(=O)(=O)C(F)(F)F)c4)cc3)CC2)C1 [navitoclax] | 0.358
24 | CN(Cc1cnc2nc(N)nc(N)c2n1)c1ccc(C(=O)N[C@@H](CCC(=O)O)C(=O)O)cc1 [methotrexate] | 2.25
25 | C=CCn1c(=O)c2cnc(Nc3ccc(N4CCN(C)CC4)cc3)nc2n1-c1cccc(C(C)(C)O)n1 [adavosertib] | 0.381
26 | CC(C)(C(=O)NCC(F)(F)C(F)(F)F)C(=O)N[C@@H]1C(=O)Nc2ccccc2-c2ccccc21 | 3.61
27 | C[C@@H]1COCCN1c1cc(C2([S@](C)(=N)=O)CC2)nc(-c2cc[nH]c3nccc2-3)n1 [ceralasertib] | 0.424
28 | CCN1CCN(Cc2ccc(Nc3ncc(F)c(-c4cc(F)c5nc(C)n(C(C)C)c5c4)n3)nc2)CC1 [abemaciclib] | 1.9

Same assay, conditions: 10 µM; days in culture: 152

Row | Compound | CTG-3D luminescence at 96 h
29 | COc1cccc2c1C(=O)c1c(O)c3c(c(O)c1C2=O)C[C@@](O)(C(=O)CO)C[C@@H]3O[C@H]1C[C@H](N)[C@H](O)[C@H](C)O1 [doxorubicin] | 0.00363
30 | O=C(O)C1(C(=O)O)CCC1.[NH2-].[NH2-].[Pt+2] [carboplatin] | 1.4
31 | NC(=O)Nc1cc(-c2cccc(F)c2)sc1C(=O)N[C@H]1CCCNC1 [AZD7762] | 0.149
32 | Nc1ccn([C@@H]2O[C@H](CO)[C@@H](O)C2(F)F)c(=O)n1 [gemcitabine] | 0.521
33 | CC1(C)CCC(c2ccc(Cl)cc2)=C(CN2CCN(c3ccc(C(=O)NS(=O)(=O)c4ccc(N[C@H](CCN5CCOCC5)CSc5ccccc5)c(S(=O)(=O)C(F)(F)F)c4)cc3)CC2)C1 [navitoclax] | 0.582
34 | CN(Cc1cnc2nc(N)nc(N)c2n1)c1ccc(C(=O)N[C@@H](CCC(=O)O)C(=O)O)cc1 [methotrexate] | 2.28
35 | C=CCn1c(=O)c2cnc(Nc3ccc(N4CCN(C)CC4)cc3)nc2n1-c1cccc(C(C)(C)O)n1 [adavosertib] | 0.452
36 | CC(C)(C(=O)NCC(F)(F)C(F)(F)F)C(=O)N[C@@H]1C(=O)Nc2ccccc2-c2ccccc21 | 2.41
37 | C[C@@H]1COCCN1c1cc(C2([S@](C)(=N)=O)CC2)nc(-c2cc[nH]c3nccc2-3)n1 [ceralasertib] | 0.604
38 | CCN1CCN(Cc2ccc(Nc3ncc(F)c(-c4cc(F)c5nc(C)n(C(C)C)c5c4)n3)nc2)CC1 [abemaciclib] | 0.0403
